The values that follow come from patent US9260486B2 (The University of Vermont and State Agricultural College, priority 2012, dated 2016).

Residues, ends and D or L forms follow the SMILES beside them.

The target in assay [1] is T1, PKG Iα (Bos taurus, UniProt P00516).
T1 construct: made in house
T1 sequence (P00516 1-671): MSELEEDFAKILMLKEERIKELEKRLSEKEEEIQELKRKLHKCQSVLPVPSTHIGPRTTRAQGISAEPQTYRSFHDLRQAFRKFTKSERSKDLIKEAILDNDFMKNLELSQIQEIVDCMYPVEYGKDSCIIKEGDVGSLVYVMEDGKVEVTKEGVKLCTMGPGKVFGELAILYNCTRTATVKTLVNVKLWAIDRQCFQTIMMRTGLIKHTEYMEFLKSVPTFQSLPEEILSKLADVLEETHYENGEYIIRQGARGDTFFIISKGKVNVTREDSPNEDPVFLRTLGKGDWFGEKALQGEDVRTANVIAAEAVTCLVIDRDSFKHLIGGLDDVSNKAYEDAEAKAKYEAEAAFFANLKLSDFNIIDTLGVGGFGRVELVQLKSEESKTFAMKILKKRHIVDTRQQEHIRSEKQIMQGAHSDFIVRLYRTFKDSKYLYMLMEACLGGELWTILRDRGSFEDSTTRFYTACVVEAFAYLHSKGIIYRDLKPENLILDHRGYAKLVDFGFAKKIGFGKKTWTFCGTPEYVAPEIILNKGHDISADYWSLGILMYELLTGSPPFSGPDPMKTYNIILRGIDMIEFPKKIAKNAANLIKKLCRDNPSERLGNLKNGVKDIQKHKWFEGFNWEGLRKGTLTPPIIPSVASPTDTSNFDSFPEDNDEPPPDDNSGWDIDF
The following applies: Butt et al., 1995; cited from earlier work.

The target of assay [2] is T1, PKG Iα. In words: 32P-incorporation assay, activation of PKG Iα by SW peptides. Type of assay: biochemical. The source says:
Starting with the 29-mer peptide (329-358), covering the full length of the switch helix, an array of peptide derivatives were synthesized to study the contributions from different segments of the SW helix peptide towards the functional phenotype of PKG Iα. Circular dichroism spectroscopy confirmed that the 29-mer SW peptide adopted a helical secondary structure. […] The activity of this short peptide is surprising. To activate the kinase, this non-helical 8-mer peptide first has to adopt the active helical conformation to activate PKG. However, this finding provides critical support in favor that the confined knob/nest interaction site may serve as a novel target site for non-cyclic nucleotide driven activation of PKG.
The isolation of the SW independent from the kinase allows us to discretely probe the nest in future studies using native and non-native amino acids. Moreover, the use of the SW: 329-358 allows us to answer more fundamental questions about the nature of the regulatory and catalytic domains and the communication between the B-site and the nest. […] The structure of this inhibitor contains a β-phenyl-1,N^2-etheno group attached to the pyrimidine ring. We hypothesized previously, based upon structural observations, that the presence of this phenyl group in the syn orientation effectively blocks PBC closure and reduces the potency of the SW:329-358 in a dose-dependent manner.
Determination of activation constants was performed using a [γ-^32P]-ATP transfer assay as previously reported (Ruth et al., 1991; Tegge et al., 1995). […] Aliquots, spotted on P81 Whatman paper were subjected to scintillation counting. All experiments were performed in the presence of the PKA-specific inhibitor, PKI^5-24 (70 nM) to suppress endogenous PKA activity.

For assay [3], the system named is KCa1.1 channels. In words: Inside-out patch clamp, open probability of single KCa1.1 channels in membrane patches from VSM cells reconstituted with recombinant PKG. The following applies: rat posterior cerebral artery VSM cells, with PKG Iα and ATP. The format is cell-based. The source says:
FIG. 4: SW:329-358 activates single KCa channels in inside-out membrane patches excised from cerebral artery myocytes.
Once we had supporting evidence that molecules carrying the knob-type ligand conformation were capable of activating PKG we set out to determine if this novel mechanism of kinase activation was functionally relevant. The high conductance calcium-activated potassium channel KCa1.1 is a well-established intracellular target of […] in vascular smooth muscle (VSM) cells. Using inside-out patch clamp configurations from freshly dissociated VSM cells from rat posterior cerebral arteries, we measured the changes of open probability (NPO) of single KCa1.1 channels in response to PKG stimulation in membrane patches excised from freshly-dissociated vascular smooth muscle cells (FIG. 4).

On to `O=c1c2nc(Br)n([C@@H]3O[C@@H]4CO[P@@](O)(=S)O[C@H]4[C@H]3O)c2nc2[nH]c(-c3ccccc3)cn12` [Rp-PET, (RP)-8-Br-PET-cGMPS], for which the “affinity for PKG Iα regulatory domain binding sites relative to cGMP” value in assay [1] was “higher affinity for the PHG Iα regulatory domain binding sites than cGMP”. For the same compound, the “effect of Rp-PET on activation constant of PKG Iα by SW:329-358” value in assay [2] (Rp-PET titrated into activation reactions) was “linear response of the activation constant to the amount of Rp-PET titrated”.

Regarding `CC(C)C[C@H](NC(=O)[C@H](CC(N)=O)NC(=O)[C@H](C)NC(=O)[C@H](Cc1ccccc1)NC(=O)[C@H](Cc1ccccc1)NC(=O)[C@H](C)NC(=O)[C@H](C)N)C(=O)N[C@@H](CCCCN)C(=O)O` [SW:348-355] (H-AAFFANLK-OH; N-terminus and C-terminus assumed), the Emax in assay [2] (read-out: activation relative to activation associated with cGMP, 8-mer knob peptide) amounted to 30%. For `Nc1nc2c(ncn2[C@@H]2O[C@@H]3COP(=O)(O)O[C@H]3[C@H]2O)c(=O)[nH]1` [cGMP], the “KCa1.1 channel open probability (NPO)” value in assay [3] was “significantly increased”. Turning to “SW:329-349: SW-peptide derivative with additional removal of the knob residues (DVSNKAYEDAEAKAKYEAEAA)”, in assay [2] (under cGMP priming conditions), the “activation of PKG Iα” value is “completely inactive”.
